# Key:
# animals = test: Repeated daily dose toxicity study (Dovetail Technologies, Inc.); format: in vivo
# Experimental: Thus, the toxic doses levels of the compounds appear high (assuming a similar biochemical pathway and not correcting for a different surface-area-to-weight ratio), a dose of 9,975 mg (9.9 g) would not be lethal for a 75-kg person.
# [1] = test system: patients with various complaints; test: Clinical trials in patients with various complaints; format: in vivo, human
# Description: Safety: As of Mar. […] As of Jul. […] Many of those patients report improvements in their conditions (see below)
# [2] = test system: patients with at least moderate allergies; test: Allergy study (Example 2); format: in vivo, human
# Description: Table 3. Table 3 is the clinical data from all patients who reported at least moderate allergies at the pre-study.
# [3] = test system: peripheral mononuclear cells; details: cited from earlier work
# melanoma = details: low doses, cited from earlier work
compound,measurement,setting,value
O=C(CCNC(=O)OCc1ccccc1)NCCS(=O)(=O)O [Taurox SB],morbidity/mortality,"animals; 400 ug/kg daily for 9 days, 14-day post-administration period",no morbidity/mortality
same,weight gain,"animals; 400 ug/kg daily for 9 days, 14-day post-administration period, compared to saline-injected controls",all gained the appropriate amount of weight
same,gross necropsies,"animals; 400 ug/kg daily for 9 days, following euthanasia",no abnormal findings
same,toxic side effects,animals; oral daily doses of 400 ug/kg for 9 days,no toxic side effects were observed
same,toxic side effects,animals; subcutaneous daily doses of 400 ug/kg for 9 days,no toxic side effects were observed
same,severe adverse effects,"[1]; over 40 patients, 1-6 months, 1-2 drops of 8× or 6× daily",without any severe adverse effects
same,lymphocyte count,"[1]; patient 102 (lymphocytopenia), 8X dose",improved
same,"energy, well-being and pain","[1]; patient 102, 8X dose","improvements in energy, an overall feeling of well-being and less pain"
same,appetite and weight,"[1]; patient 401 (lung cancer, chemotherapy), 8X dose",able to maintain their appetite and weight
same,Irritable Bowel Syndrome (IBS),[1]; patient 507,improvement in IBS
same,PMS,"[1]; patient 702, 8X dose",less severe PMS
same,ability to work,"[1]; patient 702, 8X dose",improved ability to work
same,discomfort from uterine fibroids,"[1]; patient 702, 8X dose",less discomfort from the fibroids
same,Irritable Bowel Syndrome (IBS),[1]; patient 703,complete resolution of IBS
same,average reduction in allergy symptom frequency,"[2]; five of the eight patients, p=0.017",82%
same,Allergy (lower numbers indicates less frequent allergies),"[2]; patient 102, week 0",10
same,Allergy (lower numbers indicates less frequent allergies),"[2]; patient 102, week 1",10
same,Allergy (lower numbers indicates less frequent allergies),"[2]; patient 102, week 2",10
same,Allergy (lower numbers indicates less frequent allergies),"[2]; patient 102, week 3",10
same,Allergy (lower numbers indicates less frequent allergies),"[2]; patient 102, week 4",10
same,Allergy (lower numbers indicates less frequent allergies),"[2]; patient 102, week 6",8.5
same,Allergy (lower numbers indicates less frequent allergies),"[2]; patient 102, week 7",8.5
same,Allergy (lower numbers indicates less frequent allergies),"[2]; patient 102, week 8",8.5
same,Allergy (lower numbers indicates less frequent allergies),"[2]; patient 102, week 9",8.5
same,Allergy (lower numbers indicates less frequent allergies),"[2]; patient 102, week 10",10
same,Allergy (lower numbers indicates less frequent allergies),"[2]; patient 102, week 11",10
same,Allergy (lower numbers indicates less frequent allergies),"[2]; patient 103, week 0",8
same,Allergy (lower numbers indicates less frequent allergies),"[2]; patient 103, week 1",7
same,Allergy (lower numbers indicates less frequent allergies),"[2]; patient 103, week 2",3
same,Allergy (lower numbers indicates less frequent allergies),"[2]; patient 103, week 5",3
same,Allergy (lower numbers indicates less frequent allergies),"[2]; patient 103, week 7",3
same,Allergy (lower numbers indicates less frequent allergies),"[2]; patient 103, week 8",3
same,Allergy (lower numbers indicates less frequent allergies),"[2]; patient 103, week 9",3
same,Allergy (lower numbers indicates less frequent allergies),"[2]; patient 201, week 0",10
same,Allergy (lower numbers indicates less frequent allergies),"[2]; patient 201, week 1",5
same,Allergy (lower numbers indicates less frequent allergies),"[2]; patient 201, week 2",1
same,Allergy (lower numbers indicates less frequent allergies),"[2]; patient 201, week 3",0
same,Allergy (lower numbers indicates less frequent allergies),"[2]; patient 201, week 4",1
same,allergy symptoms,"[2]; patient 401, 8X dose for 3 months",less frequent and less severe
same,Allergy (lower numbers indicates less frequent allergies),"[2]; patient 401, week 0",9
same,Allergy (lower numbers indicates less frequent allergies),"[2]; patient 401, week 1",9
same,Allergy (lower numbers indicates less frequent allergies),"[2]; patient 401, week 3",3
same,Allergy (lower numbers indicates less frequent allergies),"[2]; patient 401, week 5",3
same,Allergy (lower numbers indicates less frequent allergies),"[2]; patient 401, week 6",2
same,Allergy (lower numbers indicates less frequent allergies),"[2]; patient 401, week 7",2
same,Allergy (lower numbers indicates less frequent allergies),"[2]; patient 401, week 9",3
same,Allergy (lower numbers indicates less frequent allergies),"[2]; patient 401, week 10",4
same,Allergy (lower numbers indicates less frequent allergies),"[2]; patient 401, week 11",3
same,Allergy (lower numbers indicates less frequent allergies),"[2]; patient 402, week 0",6
same,Allergy (lower numbers indicates less frequent allergies),"[2]; patient 402, week 1",3
same,Allergy (lower numbers indicates less frequent allergies),"[2]; patient 402, week 2",2
same,Allergy (lower numbers indicates less frequent allergies),"[2]; patient 402, week 3",2
same,Allergy (lower numbers indicates less frequent allergies),"[2]; patient 402, week 4",3
same,Allergy (lower numbers indicates less frequent allergies),"[2]; patient 701, week 0",10
same,Allergy (lower numbers indicates less frequent allergies),"[2]; patient 701, week 2",10
same,Allergy (lower numbers indicates less frequent allergies),"[2]; patient 701, week 3",10
same,Allergy (lower numbers indicates less frequent allergies),"[2]; patient 701, week 4",10
same,Allergy (lower numbers indicates less frequent allergies),"[2]; patient 701, week 5",10
same,Allergy (lower numbers indicates less frequent allergies),"[2]; patient 701, week 6",10
same,severe allergic response to known allergens,"[2]; patient 702, 8X dose",marked reduction
same,Allergy (lower numbers indicates less frequent allergies),"[2]; patient 702, week 0",10
same,Allergy (lower numbers indicates less frequent allergies),"[2]; patient 702, week 1",10
same,Allergy (lower numbers indicates less frequent allergies),"[2]; patient 702, week 2",10
same,Allergy (lower numbers indicates less frequent allergies),"[2]; patient 702, week 3",5
same,Allergy (lower numbers indicates less frequent allergies),"[2]; patient 702, week 4",6
same,Allergy (lower numbers indicates less frequent allergies),"[2]; patient 702, week 5",3
same,Allergy (lower numbers indicates less frequent allergies),"[2]; patient 703, week 0",10
same,Allergy (lower numbers indicates less frequent allergies),"[2]; patient 703, week 1",10
same,Allergy (lower numbers indicates less frequent allergies),"[2]; patient 703, week 2",10
same,Allergy (lower numbers indicates less frequent allergies),"[2]; patient 703, week 3",10
same,Allergy (lower numbers indicates less frequent allergies),"[2]; patient 703, week 4",10
same,Allergy (lower numbers indicates less frequent allergies),"[2]; patient 703, week 5",10
same,Allergy (lower numbers indicates less frequent allergies),"[2]; patient 703, week 6",10
same,Allergy (lower numbers indicates less frequent allergies),"[2]; patient 703, week 7",10
same,Allergy (lower numbers indicates less frequent allergies),"[2]; patient 703, week 8",10
same,"allergies, most patients of Table 3",[2]; patients with at least moderate allergies at pre-study,decrease in allergies
same,proliferation of peripheral mononuclear cells in culture,[3],enhanced proliferation
same,expression of the CD69 T cell activation marker,[3]; human cells in culture,up regulated
same,intracellular calcium,[3]; human cells in culture,increased intracellular calcium
same,toxicity,melanoma; melanoma and myeloma models,negligible toxicity
same,anti-tumor effect,"melanoma; melanoma model, sole agent",potent anti-tumor effects

# Reference: patent publication US9655870B2, “Homeopathic drug composition and methods of use thereof” (priority 2002, dated 2017)
